Source: the supplement of paper PMC10307832

Assays:
Test in all cases: relative viability (nuclei count vs DMSO), 5 days (fraction); higher = more cells survive
Ponatinib + AZD7762 = compound: Cc1ccc(C(=O)Nc2ccc(CN3CCN(C)CC3)c(C(F)(F)F)c2)cc1C#Cc1cnc2cccnn12 [Ponatinib] + NC(=O)Nc1cc(-c2cccc(F)c2)sc1C(=O)N[C@H]1CCCNC1 [AZD7762] (partner 0.2 µM)
In short: (§1)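 Values are medians from duplicate plates. Each reflects relative viability, defined as the nuclei count of treated wells over that of vehicle wells. Lung cancer cell lines in 1536-well plates were pin-tool dosed one day after seeding with one drug alone or with a fixed anchor-drug dose plus five library-drug doses (not always all listed) in √10 steps, then fixed, stained and imaged at 4× after 5 days.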

Ponatinib + Tozasertib = compound: Cc1ccc(C(=O)Nc2ccc(CN3CCN(C)CC3)c(C(F)(F)F)c2)cc1C#Cc1cnc2cccnn12 [Ponatinib] + Cc1cc(Nc2cc(N3CCN(C)CC3)nc(Sc3ccc(NC(=O)C4CC4)cc3)n2)n[nH]1 [Tozasertib] (partner 0.1 µM)
In short: as §1

Ponatinib + Pemetrexed = compound: Cc1ccc(C(=O)Nc2ccc(CN3CCN(C)CC3)c(C(F)(F)F)c2)cc1C#Cc1cnc2cccnn12 [Ponatinib] + Nc1nc2[nH]cc(CCc3ccc(C(=O)N[C@@H](CCC(=O)O)C(=O)O)cc3)c2c(=O)[nH]1 [Pemetrexed] (partner 0.2 µM)
In short: as §1

Pazopanib + Phenformin = compound: Cc1ccc(Nc2nccc(N(C)c3ccc4c(C)n(C)nc4c3)n2)cc1S(N)(=O)=O [Pazopanib] + N=C(N)NC(=N)NCCc1ccccc1 [Phenformin] (partner 250 µM)
In short: as §1

| Cell Line | relative viability (Ponatinib + AZD7762; first compound 0.002 µM) | relative viability (Ponatinib + AZD7762; first compound 0.006325 µM) | relative viability (Ponatinib + AZD7762; first compound 0.06325 µM) | relative viability (Ponatinib + AZD7762; first compound 0.2 µM) | relative viability (Ponatinib + Tozasertib; first compound 0.002 µM) | relative viability (Ponatinib + Tozasertib; first compound 0.006325 µM) | relative viability (Ponatinib + Tozasertib; first compound 0.06325 µM) | relative viability (Ponatinib + Tozasertib; first compound 0.2 µM) | relative viability (Ponatinib + Pemetrexed; first compound 0.002 µM) | relative viability (Ponatinib + Pemetrexed; first compound 0.006325 µM) | relative viability (Ponatinib + Pemetrexed; first compound 0.06325 µM) | relative viability (Ponatinib + Pemetrexed; first compound 0.2 µM) | relative viability (Pazopanib + Phenformin; first compound 0.01 µM) | relative viability (Pazopanib + Phenformin; first compound 0.03162 µM) | relative viability (Pazopanib + Phenformin; first compound 0.1 µM) | relative viability (Pazopanib + Phenformin; first compound 0.3162 µM) | relative viability (Pazopanib + Phenformin; first compound 1 µM) |
| --- | --- | --- | --- | --- | --- | --- | --- | --- | --- | --- | --- | --- | --- | --- | --- | --- | --- |
| LC-2-ad | 0.833 | 0.858 | 0.977 | 0.872 | 0.458 | 0.455 | 0.431 | 0.397 | 0.274 | 0.272 | 0.296 | 0.263 | 0.618 | 0.649 | 0.584 | 0.689 | 0.685 |
| LCLC-97TM1 | 0.141 | 0.264 | 0.289 | 0.28 | 0.236 | 0.298 | 0.17 | 0.218 | 0.166 | 0.142 | 0.167 | 0.161 | 0.242 | 0.419 | 0.389 | 0.43 | 0.452 |
| LCLC-103H | 0.699 | 0.809 | 0.734 | 0.753 | 0.527 | 0.534 | 0.522 | 0.404 | 0.446 | 0.5 | 0.483 | 0.416 | 0.247 | 0.338 | 0.344 | 0.344 | 0.342 |
| LK-2 | 0.405 | 0.431 | 0.146 | 0.231 | – | 0.174 | 0.188 | 0.209 | 0.281 | 0.305 | 0.186 | 0.247 | – | 0.449 | 0.639 | 0.594 | 0.301 |
| LOU-NH91 | 0.744 | 0.779 | 0.801 | 0.682 | 0.65 | 0.668 | 0.71 | 0.595 | 0.335 | 0.421 | 0.463 | 0.415 | 0.635 | 0.731 | 0.605 | 0.751 | 0.731 |
| LU99A | 0.308 | 0.421 | 0.399 | 0.48 | 0.227 | 0.293 | 0.251 | 0.263 | 0.17 | 0.173 | 0.186 | 0.315 | 0.725 | 0.943 | 0.796 | 0.923 | 0.945 |
| LXF-289 | 1.03 | 1.13 | 1.19 | 1.1 | 0.205 | 0.262 | 0.21 | 0.148 | 0.74 | 0.846 | 0.982 | 0.891 | 0.563 | 0.554 | 0.507 | 0.533 | 0.525 |
| NCI-H23 | 0.266 | 0.244 | 0.237 | 0.14 | 0.351 | 0.419 | 0.25 | 0.197 | 0.616 | 0.766 | 0.819 | 0.666 | 0.565 | 0.87 | 0.905 | 0.798 | 0.783 |
| NCI-H322M | 0.566 | 0.483 | 0.543 | 0.448 | 0.429 | 0.412 | 0.41 | 0.423 | 0.639 | 0.677 | 0.655 | 0.589 | 0.844 | 0.866 | 0.779 | 0.854 | 0.791 |
| NCI-H520 | – | – | – | – | 0.45 | 0.419 | 0.397 | 0.372 | 0.59 | 0.636 | 0.556 | 0.407 | 0.386 | 0.545 | 0.507 | 0.705 | 0.537 |
